37 compounds from ChEMBL document CHEMBL1817647, “1-Heteroaryl-6-(3,4-dichlorophenyl)-3-azabicyclo[4.1.0]heptane: further insights into a class of triple re-uptake inhibitors” (Bioorg Med Chem, 2011) can be followed below.

The target in series [1] is Sodium-dependent serotonin transporter (Homo sapiens, UniProt P31645). Put plainly: Displacement of [3H]citalopram from human recombinant SERT scintillation proximity assay. (In a radioligand displacement assay an active substance lowers the binding of a labelled ligand.)
Series [2] deals with Sodium-dependent dopamine transporter (Homo sapiens, UniProt Q01959). As to the kind of experiment: Displacement of [3H]WIN-35428 from human recombinant DAT by scintillation proximity assay.
For series [3], the target named is Sodium-dependent noradrenaline transporter (Homo sapiens, UniProt P23975). Put plainly: Displacement of [3H]nisoxetine from human recombinant NET by scintillation proximity assay.
In another series the target is Cytochrome P450 2C19 (Homo sapiens, UniProt P33261). As to the kind of experiment: Inhibition of human CYP2C19 incubated for 10 mins before substrate addition by fluorescence assay.
Series [4] relates to Liver microsomes. Put plainly: Intrinsic clearance in rat liver microsomes assessed per mg of protein at 0.5 uM for 30 mins by HPLC-MS/MS analysis in presence of NADPH. The format is ADME, Microsome. The following applies: 0.5 h.
A further series deals with Cytochrome P450 2D6 (Homo sapiens, UniProt P10635). As to the kind of experiment: Inhibition of human CYP2D6 incubated for 10 mins before substrate addition by fluorescence assay.
The target of a further series is Cytochrome P450 2C9 (Homo sapiens, UniProt P11712). Put plainly: Inhibition of human CYP2C9 incubated for 10 mins before substrate addition by fluorescence assay.
The test system of series [5] is Liver microsomes. As to the kind of experiment: Intrinsic clearance in human liver microsomes assessed per mg of protein at 0.5 uM for 30 mins by HPLC-MS/MS analysis in presence of NADPH. The following applies: 0.5 h. The format is ADME, Microsome. (Liver microsomes are vesicles of endoplasmic reticulum, rich in cytochrome P450 enzymes.)
Another series addresses Cytochrome P450 3A4 (Homo sapiens, UniProt P08684). As to the kind of experiment: Inhibition of human CYP3A4 incubated for 10 mins before substrate addition by fluorescence assay.
In a further series the target is T1, Cytochrome P450 1A2 (Homo sapiens, UniProt P05177).
T1 sequence (P05177 whole entry): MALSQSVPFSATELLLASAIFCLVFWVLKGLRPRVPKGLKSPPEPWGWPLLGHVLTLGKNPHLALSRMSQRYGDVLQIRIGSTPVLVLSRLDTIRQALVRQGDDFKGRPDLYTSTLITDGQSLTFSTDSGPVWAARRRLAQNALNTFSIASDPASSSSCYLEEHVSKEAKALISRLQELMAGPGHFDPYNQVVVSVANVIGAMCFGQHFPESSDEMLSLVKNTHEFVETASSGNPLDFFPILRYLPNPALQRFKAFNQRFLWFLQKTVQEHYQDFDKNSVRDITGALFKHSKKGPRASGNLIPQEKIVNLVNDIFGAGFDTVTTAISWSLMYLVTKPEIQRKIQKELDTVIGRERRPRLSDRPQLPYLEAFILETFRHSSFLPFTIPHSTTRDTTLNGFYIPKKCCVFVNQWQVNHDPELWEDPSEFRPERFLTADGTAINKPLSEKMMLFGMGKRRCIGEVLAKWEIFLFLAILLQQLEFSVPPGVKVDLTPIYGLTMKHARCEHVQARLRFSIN
As to the kind of experiment: Inhibition of human CYP1A2 incubated for 10 mins before substrate addition by fluorescence assay.

Cytochrome P450 2C19, sequence (P33261 whole entry): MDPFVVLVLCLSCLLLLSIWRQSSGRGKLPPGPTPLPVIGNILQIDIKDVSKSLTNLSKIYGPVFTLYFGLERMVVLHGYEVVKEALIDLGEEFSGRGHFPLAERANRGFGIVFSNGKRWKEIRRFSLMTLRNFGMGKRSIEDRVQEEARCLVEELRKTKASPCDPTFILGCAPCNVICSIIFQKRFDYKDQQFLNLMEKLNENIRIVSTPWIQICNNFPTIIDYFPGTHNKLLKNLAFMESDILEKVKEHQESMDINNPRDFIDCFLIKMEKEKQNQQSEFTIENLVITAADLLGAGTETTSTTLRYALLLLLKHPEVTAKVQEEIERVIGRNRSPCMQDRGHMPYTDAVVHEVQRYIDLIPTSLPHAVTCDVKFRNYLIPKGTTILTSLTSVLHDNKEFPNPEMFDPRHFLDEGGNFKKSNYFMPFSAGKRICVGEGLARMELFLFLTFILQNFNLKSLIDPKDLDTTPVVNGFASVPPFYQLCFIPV
Sodium-dependent noradrenaline transporter, sequence (P23975 whole entry): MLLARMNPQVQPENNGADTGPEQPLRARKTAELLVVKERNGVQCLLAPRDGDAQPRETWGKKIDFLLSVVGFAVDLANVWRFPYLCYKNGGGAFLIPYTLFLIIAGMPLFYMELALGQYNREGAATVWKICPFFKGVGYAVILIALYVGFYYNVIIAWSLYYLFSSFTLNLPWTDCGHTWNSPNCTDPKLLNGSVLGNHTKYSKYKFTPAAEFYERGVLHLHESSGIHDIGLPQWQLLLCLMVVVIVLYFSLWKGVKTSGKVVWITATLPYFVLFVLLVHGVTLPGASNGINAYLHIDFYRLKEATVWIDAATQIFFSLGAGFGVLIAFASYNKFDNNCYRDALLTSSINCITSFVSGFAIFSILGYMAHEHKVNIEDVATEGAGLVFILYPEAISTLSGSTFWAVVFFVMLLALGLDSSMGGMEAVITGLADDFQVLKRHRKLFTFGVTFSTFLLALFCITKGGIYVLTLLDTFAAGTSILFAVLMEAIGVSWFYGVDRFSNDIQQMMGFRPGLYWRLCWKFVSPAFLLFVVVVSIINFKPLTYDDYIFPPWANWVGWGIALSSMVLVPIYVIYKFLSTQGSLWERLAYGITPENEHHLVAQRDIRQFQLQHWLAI
Cytochrome P450 3A4, sequence (P08684 whole entry): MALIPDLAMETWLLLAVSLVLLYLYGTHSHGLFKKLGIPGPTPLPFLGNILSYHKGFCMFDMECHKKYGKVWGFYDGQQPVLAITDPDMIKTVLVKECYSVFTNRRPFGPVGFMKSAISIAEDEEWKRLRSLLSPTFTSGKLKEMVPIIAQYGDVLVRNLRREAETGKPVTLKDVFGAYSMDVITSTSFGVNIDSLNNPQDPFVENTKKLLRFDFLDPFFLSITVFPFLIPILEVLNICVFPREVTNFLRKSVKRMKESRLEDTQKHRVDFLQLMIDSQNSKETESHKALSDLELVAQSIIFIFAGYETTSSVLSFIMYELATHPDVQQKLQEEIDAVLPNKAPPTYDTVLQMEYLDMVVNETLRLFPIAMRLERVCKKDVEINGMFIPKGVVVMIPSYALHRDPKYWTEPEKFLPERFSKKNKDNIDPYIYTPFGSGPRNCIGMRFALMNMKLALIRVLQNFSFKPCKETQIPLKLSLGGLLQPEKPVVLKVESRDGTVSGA
Cytochrome P450 2D6, sequence (P10635 whole entry): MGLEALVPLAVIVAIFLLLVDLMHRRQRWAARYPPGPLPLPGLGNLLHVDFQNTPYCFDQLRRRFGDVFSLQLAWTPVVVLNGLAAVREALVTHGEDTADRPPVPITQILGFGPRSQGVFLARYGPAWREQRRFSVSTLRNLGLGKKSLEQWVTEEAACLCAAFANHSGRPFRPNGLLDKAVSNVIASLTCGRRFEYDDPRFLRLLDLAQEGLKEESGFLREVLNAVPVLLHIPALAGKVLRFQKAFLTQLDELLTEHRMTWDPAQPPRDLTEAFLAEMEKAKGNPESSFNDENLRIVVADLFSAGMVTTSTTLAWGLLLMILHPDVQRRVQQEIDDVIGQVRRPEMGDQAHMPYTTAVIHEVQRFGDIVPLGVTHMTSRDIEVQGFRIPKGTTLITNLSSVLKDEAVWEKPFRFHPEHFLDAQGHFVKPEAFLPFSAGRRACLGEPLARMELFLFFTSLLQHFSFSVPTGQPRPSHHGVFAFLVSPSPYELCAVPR
Cytochrome P450 2C9, sequence (P11712 whole entry): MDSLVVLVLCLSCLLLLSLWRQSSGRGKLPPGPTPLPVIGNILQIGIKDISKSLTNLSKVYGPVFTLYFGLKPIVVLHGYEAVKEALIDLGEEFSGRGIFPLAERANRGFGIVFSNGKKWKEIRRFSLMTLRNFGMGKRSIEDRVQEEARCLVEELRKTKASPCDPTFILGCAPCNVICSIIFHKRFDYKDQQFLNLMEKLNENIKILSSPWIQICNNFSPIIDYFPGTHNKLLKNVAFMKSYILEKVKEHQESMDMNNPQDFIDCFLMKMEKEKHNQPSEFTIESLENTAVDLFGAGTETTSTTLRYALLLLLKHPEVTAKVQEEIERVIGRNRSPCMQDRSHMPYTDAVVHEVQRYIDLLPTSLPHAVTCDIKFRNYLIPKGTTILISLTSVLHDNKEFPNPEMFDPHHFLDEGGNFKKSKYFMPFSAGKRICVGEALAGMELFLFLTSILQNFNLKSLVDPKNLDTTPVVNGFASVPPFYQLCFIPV
Sodium-dependent serotonin transporter, sequence (P31645 whole entry): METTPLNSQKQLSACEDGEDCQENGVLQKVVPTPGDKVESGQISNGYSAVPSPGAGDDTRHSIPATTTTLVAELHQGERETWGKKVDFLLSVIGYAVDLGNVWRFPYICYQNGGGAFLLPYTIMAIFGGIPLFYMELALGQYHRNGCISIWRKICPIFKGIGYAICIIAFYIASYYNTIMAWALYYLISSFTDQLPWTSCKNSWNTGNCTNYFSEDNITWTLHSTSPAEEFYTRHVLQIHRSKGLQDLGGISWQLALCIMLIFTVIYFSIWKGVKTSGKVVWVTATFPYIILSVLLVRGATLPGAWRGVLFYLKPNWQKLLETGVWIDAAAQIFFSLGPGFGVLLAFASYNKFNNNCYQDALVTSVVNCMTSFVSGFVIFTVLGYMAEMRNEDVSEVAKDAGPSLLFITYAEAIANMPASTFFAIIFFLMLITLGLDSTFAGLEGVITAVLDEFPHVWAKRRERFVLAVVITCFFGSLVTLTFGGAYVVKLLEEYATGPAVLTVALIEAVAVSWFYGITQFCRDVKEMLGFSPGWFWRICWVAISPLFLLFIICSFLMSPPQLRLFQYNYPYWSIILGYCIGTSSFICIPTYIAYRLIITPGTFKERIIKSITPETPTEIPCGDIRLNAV
Sodium-dependent dopamine transporter, sequence (Q01959 whole entry): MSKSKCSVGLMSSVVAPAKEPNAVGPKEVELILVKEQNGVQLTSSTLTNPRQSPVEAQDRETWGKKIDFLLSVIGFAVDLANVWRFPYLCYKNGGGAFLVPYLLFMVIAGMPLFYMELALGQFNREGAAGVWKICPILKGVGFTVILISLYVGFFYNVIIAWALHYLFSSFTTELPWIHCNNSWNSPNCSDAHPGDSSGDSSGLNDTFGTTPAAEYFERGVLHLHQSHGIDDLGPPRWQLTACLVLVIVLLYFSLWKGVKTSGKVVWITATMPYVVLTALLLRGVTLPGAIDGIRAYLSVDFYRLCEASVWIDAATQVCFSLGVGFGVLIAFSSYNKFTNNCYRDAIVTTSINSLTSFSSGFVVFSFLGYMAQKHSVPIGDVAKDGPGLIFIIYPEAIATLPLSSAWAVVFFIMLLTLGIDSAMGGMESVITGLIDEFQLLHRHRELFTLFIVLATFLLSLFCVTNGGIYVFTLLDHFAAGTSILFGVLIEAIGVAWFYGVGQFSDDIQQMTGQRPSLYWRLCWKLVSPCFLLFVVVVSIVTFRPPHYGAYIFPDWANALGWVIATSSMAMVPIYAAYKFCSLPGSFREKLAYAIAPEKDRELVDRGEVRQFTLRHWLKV

Broadly, the Ki is a measure of affinity in units of concentration, obtained from inhibition or displacement. As for `Cc1coc(C[C@@]23CNCC[C@]2(c2ccc(Cl)c(Cl)c2)C3)n1` (racemic), the Ki in series [1] was 2 nM; in [2] it was 63.1 nM; in series [3] it was 31.6 nM.

The term IC50 denotes the concentration needed to halve the response being measured. With `Cc1csc(C23CNCC[C@]2(c2ccc(Cl)c(Cl)c2)C3)n1` (single isomer, unassigned; enantiomer 1), the IC50 at Cytochrome P450 2C19, on Cytochrome P450 2D6, against Cytochrome P450 2C9, against Cytochrome P450 3A4 and on Cytochrome P450 1A2 was greater than 6 µM throughout. Moreover, the values for the CL with Liver microsomes [4] and with Liver microsomes [5] were 5.4 mL/min/g and 2.6 mL/min/g, respectively. Further, the Ki was 0.398 nM in series [1], 0.2 nM in series [2] and 0.398 nM in series [3].

With `Cc1ccn(CC23CNCC[C@]2(c2ccc(Cl)c(Cl)c2)C3)c1` (stereo not given in full), the results for the Ki in series [1], in [2] and in series [3] were 0.501 nM, 31.6 nM and 39.8 nM, respectively.

On to `Clc1ccc([C@]23CCNCC2(Cn2ccc4ccccc42)C3)cc1Cl` (stereo not given in full), for which the Ki in series [1] is 1.26 nM; in series [2], 20 nM; in series [3], 63.1 nM.

`Cc1ccnn1CC12CNCC[C@]1(c1ccc(Cl)c(Cl)c1)C2` (single isomer, unassigned; enantiomer 2): the IC50 against Cytochrome P450 2C19, on Cytochrome P450 2D6, at Cytochrome P450 2C9, on Cytochrome P450 3A4 and on Cytochrome P450 1A2 was greater than 10 µM each time. Also, the CL in the series on Liver microsomes [4] stood at 2.6 mL/min/g; with Liver microsomes [5] it was 2.5 mL/min/g. The Ki in series [1] is 0.794 nM; in series [2], 3.16 nM; in [3] it was 1.58 nM.

As for `Cc1nc(C)n(CC23CNCC[C@]2(c2ccc(Cl)c(Cl)c2)C3)n1` (stereo in doubt; 38), the inhibition constant Ki in series [1] was 39.8 nM; in series [2] it was 200 nM; in series [3], 1580 nM.

As to `CC(C)c1nnn(C[C@@]23CNCC[C@]2(c2ccc(Cl)c(Cl)c2)C3)n1` (racemic), the Ki in series [1] is 0.794 nM; in series [2], 25.1 nM; in [3], 398 nM.

With `N#Cc1cccn1C[C@@]12CNCC[C@]1(c1ccc(Cl)c(Cl)c1)C2` (racemic), the Ki in series [1] is 2.51 nM; in series [2] it was 12.6 nM; in series [3], 39.8 nM.

Take `FC(F)(F)c1ccn(C[C@@]23CNCC[C@]2(c2ccc(Cl)c(Cl)c2)C3)n1` (racemic): the Ki was 2 nM in [1], 25.1 nM in [2] and 158 nM in series [3].

With `Clc1ccc([C@]23CCNC[C@@]2(Cn2cccc2)C3)cc1Cl` (racemic), the figures for the Ki in series [1], in series [2] and in [3] were 0.398 nM, 15.8 nM and 10 nM, respectively.

As for `N#Cc1ccnn1C[C@@]12CNCC[C@]1(c1ccc(Cl)c(Cl)c1)C2` (racemic), the Ki was 5.01 nM in series [1], 20 nM in series [2] and 31.6 nM in series [3].

For `Cc1ccn(CC23CNCC[C@]2(c2ccc(Cl)c(Cl)c2)C3)n1` (single isomer, unassigned; enantiomer 1), the results for the Ki in series [1], in series [2] and in series [3] were 20 nM, 316 nM and 1000 nM, respectively.

As to `N#Cc1ccn(C[C@@]23CNCC[C@]2(c2ccc(Cl)c(Cl)c2)C3)n1` (racemic), the Ki in [1] was 1 nM; in [2], 25.1 nM; in series [3] it was 25.1 nM.

With `Cc1noc([C@@]23CNCC[C@]2(c2ccc(Cl)c(Cl)c2)C3)n1` (racemic), the Ki was 7.94 nM in [1], 0.794 nM in [2] and 31.6 nM in series [3].

In the case of `N#Cc1ccn(CC23CNCC[C@]2(c2ccc(Cl)c(Cl)c2)C3)c1` (single isomer, unassigned; enantiomer 1), the Ki in series [1] is 0.631 nM; in series [2], 12.6 nM; in series [3], 31.6 nM.

As to `Cc1csc([C@@]23CNCC[C@]2(c2ccc(Cl)c(Cl)c2)C3)n1` (racemic), the inhibitory constant (Ki) is 0.501 nM in series [1], 0.158 nM in series [2] and 0.398 nM in series [3].

Regarding `CC(C)c1nnnn1C[C@@]12CNCC[C@]1(c1ccc(Cl)c(Cl)c1)C2` (racemic), the Ki in [1] was 63.1 nM; in series [2], 63.1 nM; in series [3] it was 398 nM.

As for `Cc1csc(C23CNCC[C@]2(c2ccc(Cl)c(Cl)c2)C3)n1` (stereo in doubt; 7), the Ki in series [1] was 15.8 nM; in series [2], 20 nM; in series [3], 31.6 nM.

In the case of `Cc1cnc([C@@]23CNCC[C@]2(c2ccc(Cl)c(Cl)c2)C3)o1` (racemic), the values for the Ki in series [1], in [2] and in series [3] were 6.31 nM, 1 nM and 6.31 nM, respectively.

For the compound `Cc1ccc(C)n1C[C@@]12CNCC[C@]1(c1ccc(Cl)c(Cl)c1)C2` (racemic), the Ki in series [1] is 2.51 nM; in series [2], 20 nM; in series [3], 20 nM.

With `Cc1csc(C[C@@]23CNCC[C@]2(c2ccc(Cl)c(Cl)c2)C3)n1` (racemic), the inhibitory constant (Ki) was 0.1 nM in series [1], 6.31 nM in series [2] and 0.631 nM in [3].

Take `Clc1ccc([C@]23CCNCC2(Cn2cc4ccccc4n2)C3)cc1Cl` (stereo not given in full): the Ki in [1] was 0.2 nM; in [2] it was 3.98 nM; in series [3], 50.1 nM.

In the case of `Cc1ncoc1C[C@@]12CNCC[C@]1(c1ccc(Cl)c(Cl)c1)C2` (racemic), the inhibition constant (Ki) in series [1] was 3.16 nM; in series [2], 12.6 nM; in [3], 25.1 nM.

`Cc1cc([C@@]23CNCC[C@]2(c2ccc(Cl)c(Cl)c2)C3)no1` (racemic): the Ki is 7.94 nM in series [1], 2 nM in series [2] and 39.8 nM in series [3].

As to `Cc1ccn(CC23CNCC[C@]2(c2ccc(Cl)c(Cl)c2)C3)n1` (stereo in doubt), the IC50 at Cytochrome P450 2C19, against Cytochrome P450 2D6, at Cytochrome P450 2C9, on Cytochrome P450 3A4 and against Cytochrome P450 1A2 was greater than 10 µM each time. Besides, the values for the Ki in [1], in series [2] and in series [3] were 0.251 nM, 15.8 nM and 3.16 nM, respectively.

Regarding `Cc1cc(C(F)(F)F)n(C[C@@]23CNCC[C@]2(c2ccc(Cl)c(Cl)c2)C3)n1` (racemic), the values for the Ki in series [1], in series [2] and in series [3] were 0.794 nM, 1.26 nM and 10 nM, respectively.

Turning to `Clc1ccc([C@]23CCNCC2(Cn2ncc4ccccc42)C3)cc1Cl` (stereo not given in full), the Ki in series [1] is 0.251 nM; in series [2], 15.8 nM; in [3] it was 50.1 nM.

Turning to `Cc1nc(C)n(C[C@@]23CNCC[C@]2(c2ccc(Cl)c(Cl)c2)C3)n1` (racemic), the Ki in series [1] was 3.16 nM; in [2], 25.1 nM; in [3], 39.8 nM.

Regarding `Cc1cnn(C[C@@]23CNCC[C@]2(c2ccc(Cl)c(Cl)c2)C3)c1` (racemic), the Ki was 0.794 nM in series [1], 126 nM in [2] and 79.4 nM in series [3].

For `Cc1cc(C)n(C[C@@]23CNCC[C@]2(c2ccc(Cl)c(Cl)c2)C3)c1` (racemic), the Ki in [1] is 2 nM; in [2], 7.94 nM; in series [3], 20 nM.

As to `Cc1cc(C)n(CC23CNCC[C@]2(c2ccc(Cl)c(Cl)c2)C3)n1` (single isomer, unassigned; enantiomer 1), the figures for the Ki in [1], in series [2] and in [3] were 15.8 nM, 158 nM and 501 nM, respectively.

In the case of `Cc1cc(C(F)(F)F)nn1C[C@@]12CNCC[C@]1(c1ccc(Cl)c(Cl)c1)C2` (racemic), the Ki in series [1] is 1 nM; in series [2], 2 nM; in series [3], 25.1 nM.

On to `CC(C)(C)c1ccn(C[C@@]23CNCC[C@]2(c2ccc(Cl)c(Cl)c2)C3)n1` (racemic), for which the Ki in [1] was 0.251 nM; in series [2] it was 6.31 nM; in series [3] it was 50.1 nM.

Consider `Cc1ccnn1CC12CNCC[C@]1(c1ccc(Cl)c(Cl)c1)C2` (stereo in doubt; 16), for which the Ki is 20 nM in series [1], 100 nM in [2] and 316 nM in series [3].

`Cc1cc(C)n(C[C@@]23CNCC[C@]2(c2ccc(Cl)c(Cl)c2)C3)n1` (racemic): the Ki is 0.398 nM in [1], 6.31 nM in series [2] and 1.58 nM in series [3].

With `FC(F)(F)c1ccnn1C[C@@]12CNCC[C@]1(c1ccc(Cl)c(Cl)c1)C2` (racemic), the Ki in [1] is 2 nM; in series [2] it was 1.58 nM; in series [3] it was 10 nM.

Turning to `Clc1ccc([C@]23CCNC[C@@]2(Cn2cncn2)C3)cc1Cl` (racemic), the Ki is 3.98 nM in series [1], 200 nM in series [2] and 100 nM in series [3].
